Measured values as given in patent publication US20220380319A1 (Bial - R&D Investments, S.A., priority 2019, published 2022).
Values after ≈ are worked out from the molar mass of the structure shown.

Assays:
acid ceramidase = target: T1, acid ceramidase (Homo sapiens, UniProt Q13510); assay: Acid ceramidase inhibition, biochemical fluorescent assay with cell lysates overexpressing acid ceramidase, substrate Rbm14-12; details: substrate Rbm14-12 6.3 μM
T1 construct: Cell lysates overexpressing acid ceramidase were used as the enzyme source; expressed in transfected cells
T1 sequence (Q13510 22-395): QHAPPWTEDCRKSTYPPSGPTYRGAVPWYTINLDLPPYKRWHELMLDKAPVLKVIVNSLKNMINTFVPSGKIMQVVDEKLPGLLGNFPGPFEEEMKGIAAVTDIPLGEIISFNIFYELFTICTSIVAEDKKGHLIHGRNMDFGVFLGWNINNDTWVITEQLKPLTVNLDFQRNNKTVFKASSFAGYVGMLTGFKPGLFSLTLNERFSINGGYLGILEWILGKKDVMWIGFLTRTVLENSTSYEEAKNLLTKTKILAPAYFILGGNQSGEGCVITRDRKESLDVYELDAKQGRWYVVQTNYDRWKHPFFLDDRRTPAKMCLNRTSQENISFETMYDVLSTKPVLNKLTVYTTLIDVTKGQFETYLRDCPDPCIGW
Procedure, shortened: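 IC50 derived by four-parameter fitting of fluorescence (ex360 nm, em446 nm) produced after 1 hr in methanol/NaIO4/glycine stop buffer, pH 10.6. Reaction: 6.3 μM Rbm14-12, 1 hr RT, following 1 hr RT compound preincubation with 10 μg overexpressing-cell lysate protein in pH 4.5 NaAC/NaCl buffer.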

[1] = Compound solubility in water
[2] = pH 4.5, 1 hr preincubation at RT

| SMILES | IC50 (acid ceramidase; [2]) [nM] | solubility [1] [µg/mL] | IC50 (acid ceramidase; pH 4.5) [nM] |
| --- | --- | --- | --- |
| CC(C)CCNC(=O)n1cnc2c(N3CCN(C)C4(CC4)C3)cccc21 [Example 157, N-iso-Pentyl-4-(4-methyl-4,7-diazaspiro[2.5]-octan-7-yl)-1H-benzo[d]imidazole-1-carboxamide] | 200 to 1000 | 27 (≈ 76 µM) |  |
| CC(C)CCNC(=O)n1cnc2c(N3CCN4CCCC4C3)cccc21 (stereo not shown) [Example 158, 4-(Hexahydropyrrolo[1,2-a]pyrazin-2(1H)-yl)-N-iso-pentyl-1H-benzo[d]imidazole-1-carboxamide] | 200 to 1000 | 17 (≈ 47.8 µM) |  |
| CC(C)CCNC(=O)n1cnc2c(N3CC4CC3CN4C)cccc21 (stereo not shown) [Example 159, N-iso-Pentyl-4-(5-methyl-2,5-diazabicyclo[2.2.1]heptan-2-yl)-1H-benzo[d]imidazole-1-carboxamide] | 200 to 1000 | 33 (≈ 96.6 µM) |  |
| CC(C)CCNC(=O)n1cnc2c(N3CC4CC(C3)N4C)cccc21 [Example 160, N-iso-Pentyl-4-(6-methyl-3,6-diazabicyclo[3.1.1]-heptan-3-yl)-1H-benzo[d]imidazole-1-carboxamide] | 200 to 1000 | 35 (≈ 103 µM) |  |
| CC(C)CCNC(=O)n1cnc2c(N3CC4CCC(C3)N4C)cccc21 [Example 161, N-iso-Pentyl-4-(8-methyl-3,8-diazabicyclo[3.2.1]-octan-3-yl)-1H-benzo[d]imidazole-1-carboxamide] |  | 35 (≈ 98.5 µM) | 200 to 1000 |
| CC(C)CCNC(=O)n1cnc2c(N3CCN(C)CC3=O)cccc21 [Example 162, N-iso-Pentyl-4-(4-methyl-2-oxopiperazin-1-yl)-1H-benzo[d]imidazole-1-carboxamide] |  | 18 (≈ 52.4 µM) | > 1000 |
| CC(C)CCNC(=O)n1cnc2c(N3CCN(C)C(=O)C3)cccc21 [Example 163, N-iso-Pentyl-4-(4-methyl-3-oxopiperazin-1-yl)-1H-benzo[d]imidazole-1-carboxamide] |  | 14 (≈ 40.8 µM) | 200 to 1000 |
| CC(C)CCNC(=O)n1cnc2c(N3CC(C)(C#N)C3)cccc21 [Example 165, 4-(3-Cyano-3-methylazetidin-1-yl)-N-isopentyl-1H-benzo[d]imidazole-1-carboxamide] |  | 1 (≈ 3.07 µM) | 200 to 1000 |
| CC(C)CCNC(=O)n1cnc2c(N3C[C@H]4C[C@@H]3CO4)cccc21 [Example 166, 4-((1R,4R)-2-Oxa-5-azabicyclo[2.2.1]heptan-5-yl)-N-iso-pentyl-1H-benzo[d]imidazole-1-carboxamide] |  | 12 (≈ 36.5 µM) | 200 to 1000 |
| CC(C)CCNC(=O)n1cnc2c(N3C[C@@H](C)O[C@@H](C)C3)cccc21 [Example 167, 4-((2S,6R)-2,6-Dimethylmorpholino)-N-iso-pentyl-1H-benzo[d]imidazole-1-carboxamide] |  | 4 (≈ 11.6 µM) | 200 to 1000 |
| CC(C)CCNC(=O)n1cnc2c(N3CCOC[C@@H]3C)cccc21 [Example 169, (S)—N-iso-Pentyl-4-(3-methylmorpholino)-1H-benzo[d]imidazole-1-carboxamide] |  | 23 (≈ 69.6 µM) | 200 to 1000 |
| CC(C)CCNC(=O)n1cnc2c(N3CCOC(C)(C)C3)cccc21 [Example 170, 4-(2,2-Dimethylmorpholino)-N-isopentyl-1H-benzo[d]imidazole-1-carboxamide] |  | 14 (≈ 40.6 µM) | 200 to 1000 |
| CC(C)CCNC(=O)n1cnc2c(N3CCO[C@@H](C)C3)cccc21 [Example 171, (S)—N-iso-Pentyl-4-(2-methylmorpholino)-1H-benzo[d]imidazole-1-carboxamide] |  | 15 (≈ 45.4 µM) | 200 to 1000 |
| CC(C)CCNC(=O)n1cnc2c(N3CCO[C@@H](C(C)C)C3)cccc21 [Example 172a, (S)—N-iso-Pentyl-4-(2-iso-propylmorpholino)-1H-benzo[d]imidazole-1-carboxamide] |  | 4 (≈ 11.2 µM) | 200 to 1000 |
| CC(C)CCNC(=O)n1cnc2c(N3CCO[C@H](C(C)C)C3)cccc21 [Example 172b, (R)—N-iso-pentyl-4-(2-iso-propylmorpholino)-1H-benzo[d]imidazole-1-carboxamide] |  | 4 (≈ 11.2 µM) | 200 to 1000 |
| CC(C)CCNC(=O)n1cnc2c(N3CCCOCC3)cccc21 [Example 173, N-iso-Pentyl-4-(1,4-oxazepan-4-yl)-1H-benzo[d]imidazole-1-carboxamide] |  | 17 (≈ 51.4 µM) | 200 to 1000 |
| CC(C)CCNC(=O)n1cnc2c(N3CCO[C@@H](Cc4ccccc4)C3)cccc21 [Example 174, (S)-4-(2-Benzylmorpholino)-N-iso-pentyl-1H-benzo[d]imidazole-1-carboxamide] |  | 1 (≈ 2.46 µM) | 200 to 1000 |
| CC(C)CCNC(=O)n1cnc2c(N3CCC4(CC3)COC4)cccc21 [Example 175, N-iso-Pentyl-4-(2-oxa-7-azaspiro[3.5]nonan-7-yl)-1H-benzo[d]imidazole-1-carboxamide] |  | 18 (≈ 50.5 µM) | 200 to 1000 |

| SMILES | IC50 (acid ceramidase; [2]) [nM] | solubility [1] [µg/mL] | IC50 (acid ceramidase; pH 4.5) [nM] |
| --- | --- | --- | --- |
| CC(C)CCNC(=O)n1cnc2c(N3CC4(COC4)C3)cccc21 [Example 176] |  | 22 (≈ 67 µM) | 200 to 1000 |
| COC1(C)CN(c2cccc3c2ncn3C(=O)NCCC(C)C)C1 [Example 177, N-iso-Pentyl-4-(3-methoxy-3-methylazetidin-1-yl)-1H-benzo[d]imidazole-1-carboxamide] |  | 13 (≈ 39.3 µM) | 200 to 1000 |
| N#Cc1cc(N2CCOCC2)c2ncn(C(=O)NCCCC3CC3)c2c1 [Example 178, 6-Cyano-N-(3-cyclopropylpropyl)-4-morpholino-1H-benzo[d]imidazole-1-carboxamide] |  | 2 (≈ 5.66 µM) | < 200 |
| CC(C)CCNC(=O)n1cnc2c(N3CCOCC3)cc(C#N)cc21 [Example 179, 6-Cyano-N-iso-pentyl-4-morpholino-1H-benzo[d]imidazole-1-carboxamide] |  | 10 (≈ 29.3 µM) | < 200 |
| CC(C)CCNC(=O)n1cnc2c(N3CCN(C)CC3)cc(C#N)cc21 [Example 180, 6-Cyano-N-iso-pentyl-4-(4-methylpiperazin-1-yl)-1H-benzo[d]imidazole-1-carboxamide] |  | 23 (≈ 64.9 µM) | < 200 |
| CC(C)CCNC(=O)n1cnc2c(C3CCN(C)CC3)cccc21 [Example 182, N-iso-Pentyl-4-(1-methylpiperidin-4-yl)-1H-benzo[d]imidazole-1-carboxamide] |  | 32 (≈ 97.4 µM) | 200 to 1000 |
| COc1nc2ccc(N3CCOCC3)cc2n1C(=O)NCCCC1(C(F)(F)F)CC1 [Example 183a, 2-Methoxy-6-morpholino-N-(3-(1-(trifluoromethyl)cyclopropyl)propyl)-1H benzo[d]imidazole-1-carboxamide] |  | 15 (≈ 35.2 µM) | < 200 |
| COc1nc2cc(N3CCOCC3)ccc2n1C(=O)NCCCC1(C(F)(F)F)CC1 [Example 183b, 2-methoxy-5-morpholino-N-(3-(1-(trifluoromethyl)cyclopropyl)propyl)-1H-benzo[d]imidazole-1-carboxamide] |  | 3 (≈ 7.04 µM) | < 200 |
| CC(C)(C)CCNC(=O)n1cnc2c(N3CCN(C4CC4)CC3)cccc21 [Example 185, 4-(4-Cyclopropylpiperazin-1-yl)-N-(3,3-dimethylbutyl)-1H-benzo[d]imidazole-1-carboxamide] |  | 2 (≈ 5.41 µM) | 200 to 1000 |
| CC(C)(C)CCCNC(=O)n1cnc2c(N3CCOCC3)cccc21 [Example 186, N-(4,4-Dimethylpentyl)-4-morpholino-1H-benzo[d]imidazole-1-carboxamide] |  | 10 (≈ 29 µM) | < 200 |
| COc1nc2ccccc2n1C(=O)NCCCCn1ccc(C(C)(C)C)n1 [Example 187, N-(4-(3-(tert-Butyl)-1H-pyrazol-1-yl)butyl)-2-methoxy-1H-benzo[d]imidazole-1-carboxamide] |  | 22 (≈ 59.5 µM) | 200 to 1000 |
| COc1nc2cc(N3CCOCC3)ccc2n1C(=O)NCCCCn1ccc(C(C)(C)C)n1 [Example 188a, N-(4-(3-(tert-Butyl)-1H-pyrazol-1-yl)butyl)-2-methoxy-5-morpholino-1H-benzo[d]imidazole-1-carboxamide] |  | 27 (≈ 59.4 µM) | 200 to 1000 |
| COc1nc2ccc(N3CCOCC3)cc2n1C(=O)NCCCCn1ccc(C(C)(C)C)n1 [Example 188b, N-(4-(3-(tert-butyl)-1H-pyrazol-1-yl)butyl)-2-methoxy-6-morpholino-1H-benzo[d]imidazole-1-carboxamide] |  | 26 (≈ 57.2 µM) | 200 to 1000 |
| CCOc1nc2cc(N3CCOCC3)ccc2n1C(=O)NCCCc1ccccc1 [Example 189a, 2-Ethoxy-5-morpholino-N-(3-phenylpropyl)-1H-benzo[d]imidazole-1-carboxamide] |  | 2 (≈ 4.9 µM) | < 200 |
| CCOc1nc2ccc(N3CCOCC3)cc2n1C(=O)NCCCc1ccccc1 [Example 189b, 2-ethoxy-6-morpholino-N-(3-phenylpropyl)-1H-benzo[d]imidazole-1-carboxamide] |  | 3 (≈ 7.34 µM) | < 200 |
| COCCOc1nc2cc(N3CCOCC3)ccc2n1C(=O)NCCCc1ccccc1 [Example 190a, 2-(2-Methoxyethoxy)-5-morpholino-N-(3-phenylpropyl)-1H-benzo[d]imidazole-1 carboxamide] |  | 17 (≈ 38.8 µM) | < 200 |
| COCCOc1nc2ccc(N3CCOCC3)cc2n1C(=O)NCCCc1ccccc1 [Example 190b, 2-(2-methoxyethoxy)-6-morpholino-N-(3-phenylpropyl)-1H-benzo[d]imidazole-1-carboxamide] |  | 16 (≈ 36.5 µM) | < 200 |
